In article PMC11173104, “Synthesis and Antioxidant Activity of N-Benzyl-2-[4-(aryl)-1H-1,2,3-triazol-1-yl]ethan-1-imine Oxides” (International Journal of Molecular Sciences, 2024):

Columns and labels:
[1] = Reducing activity (RA): interaction with the stable free radical DPPH; conditions: 100 µM
Method: DPPH is a stable free radical, advantageous for testing compounds in an ethanolic solution, which in its oxidized form presents a maximum absorbance at about 517 nm. The DPPH method is independent of the molecule’s polarity. […] Nitrones 10b, 10c, and 10d highly interact with DPPH (64.5–81%) after 20 min, whereas 10a presents a lower value. In general, the insertion of a substituent increases the reducing activity (RA). […] It seems that an acceptor, such as a fluorine atom, with small molar refractivity (MR) in the para position offers antioxidant ability. […] RA is not influenced by lipophilicity within this nitrones group. The interaction values are increased for all after 60 min (78–81%), showing time dependency. For the sake of comparison, NDGA was used as a standard reference compound.
To an ethanolic solution of DPPH (0.05 mM) in absolute ethanol, 10 µL from a stock solution (10 mM) in the DMSO of the compounds was added. The mixture was shaken vigorously and allowed to stand for 20 min or 60 min; absorbance at 517 nm was determined spectrophotometrically and the percentage of activity was calculated. All tests were undertaken on three or four replicates and the results were averaged (Table 1). NDGA was used as a reference compound.

soybean LOX = molecular target: T1, soybean LOX (Glycine max, UniProt P08170); assay: Soybean LOX inhibition in vitro (UV absorbance-based); assay type: biochemical; conditions: for IC50: Tris pH 9, sodium linoleate
T1 construct: purchased Aldrich Chemical Co., Milwaukee, WI, USA
T1 sequence (P08170 1-839): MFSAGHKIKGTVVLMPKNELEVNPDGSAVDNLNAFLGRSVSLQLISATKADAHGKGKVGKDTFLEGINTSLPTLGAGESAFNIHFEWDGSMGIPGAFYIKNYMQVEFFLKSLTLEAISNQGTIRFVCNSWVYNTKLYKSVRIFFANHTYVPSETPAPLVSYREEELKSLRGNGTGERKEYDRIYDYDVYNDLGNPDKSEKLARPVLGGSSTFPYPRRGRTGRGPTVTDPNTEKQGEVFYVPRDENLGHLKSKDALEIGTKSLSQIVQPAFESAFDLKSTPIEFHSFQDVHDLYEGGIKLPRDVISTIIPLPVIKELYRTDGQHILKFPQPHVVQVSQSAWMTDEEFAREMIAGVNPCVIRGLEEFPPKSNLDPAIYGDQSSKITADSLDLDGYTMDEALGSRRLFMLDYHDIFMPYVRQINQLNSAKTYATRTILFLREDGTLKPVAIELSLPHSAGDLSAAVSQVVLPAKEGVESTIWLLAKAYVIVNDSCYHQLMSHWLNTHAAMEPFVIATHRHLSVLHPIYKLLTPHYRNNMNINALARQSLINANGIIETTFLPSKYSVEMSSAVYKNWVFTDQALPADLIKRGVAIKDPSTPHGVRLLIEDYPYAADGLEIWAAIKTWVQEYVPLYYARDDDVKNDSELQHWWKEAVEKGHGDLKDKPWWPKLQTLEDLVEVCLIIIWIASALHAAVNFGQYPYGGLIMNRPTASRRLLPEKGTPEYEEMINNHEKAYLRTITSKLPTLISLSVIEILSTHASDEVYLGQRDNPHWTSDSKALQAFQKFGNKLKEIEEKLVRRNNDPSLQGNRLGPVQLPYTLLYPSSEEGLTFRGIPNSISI
Description: The appropriate stimulation of neutrophils cleaves arachidonic acid (AA) from membrane phospholipids, producing leukotrienes through lipoxygenase. Leukotriene B4 (LTB4) is a potent mediator of inflammation, considered to be important in the pathogenesis of neutrophil-mediated inflammatory diseases with a marked relation to the severity of cardiovascular diseases, stroke, and cancer. The enzyme lipoxygenase catalyzes the first two steps in the metabolism of AA, which is cleaved from membrane phospholipids to leukotrienes (LTB4). LTB4 generation is important in the pathogenesis of neutrophil-mediated inflammatory diseases.
The tested compounds dissolved in DMSO were incubated at rt with sodium linoleate (0.1 mL) and 0.2 mL of the enzyme solution (1/9 × 10^−4 w/v in saline) in buffer Tris pH 9.

[2] = Inhibition of AAPH-induced linoleic acid lipid peroxidation (ILP); conditions: 100 µM, 37 °C, pH 7.4
Description: In our studies, the water-soluble azo AAPH was used as a thermal free radical initiator to induce the oxidative changes of linoleic acid to conjugated diene hydroperoxide. All nitrones except for 10c presented inhibition values (75–87%) lower than the common standard Trolox (93%) (Table 1). […] Lipophilicity seems to play a significant role related to a positive result since the inserted methyl group in compound 10b (75%) increases the lipophilicity of compound 10d driving it to higher inhibition (87%).
Ten microliters of the 16 mM linoleic acid sodium salt solution were added to the UV cuvette containing 0.93 mL of the 0.05 M phosphate buffer, pH 7.4 prethermostated at 37 °C. The oxidation reaction was initiated at 37 °C under air by the addition of 50 μL of the 40 mM AAPH solution. Oxidation was carried out in the presence of 10 μL of the compounds’ stock 10 mM solution in DMSO, in the assay. Lipid oxidation was measured in the presence of the same level of DMSO. The rate of oxidation at 37 °C was recorded as the absorption values at 234 nm and compared to Trolox (Table 1).

[3] = Competition with DMSO for hydroxyl radicals; conditions: 100 µM; Fe3+/ascorbic acid, 37 °C, 30 min
Method: Hydroxyl (^•OH) free radical is counted as the most toxic. As a result, it reacts with important biological molecules such as DNA, lipids, or carbohydrates. We found it interesting to test the scavenging activity of the compounds in competition with DMSO.
The hydroxyl radicals were produced by the Fe^3+/ascorbic acid system and detected by the determination of the formaldehyde produced from the oxidation of DMSO. EDTA (0.1 mM), Fe^3+ (167 μM), DMSO (33 mM) in phosphate buffer (50 mM, pH 7.4), the tested compounds (100 µM) and ascorbic acid (10 mM) were inserted, mixed, and incubated in test tubes at 37 °C for 30 min. The reaction was stopped by CCl3COOH (17% w/v) and the % scavenging activity of the nitrones for hydroxyl radicals was recorded. Trolox was used as a positive control (Table 1).

[4] = ABTS•+ decolorization assay in ethanolic solution; conditions: 100 µM; 734 nm, 1 min
Method: ABTS^•+ was produced according to the described procedure as follows. An ABTS stock solution in water (7 mM) was mixed with potassium persulfate (2.45 mM) and left in a dark at room temperature for 12–16 h before use. A total of 10 µL of the investigated compounds were added to ethanol together with the cationic radical. The results were taken at 734 nm, after 1 min of the mixing procedure. Trolox was used as a positive standard (Table 1).

[5] = parameters: method as in PMID 36670898; conditions: previous work; cited from earlier work

Row | IC50 (soybean LOX) [µM] | melting point [°C] | inhibition at 100 µM (soybean LOX; at 100 µM) [%] | SMILES | RA (%) 20 min [1] | RA (%) 60 min [1] | ILP (%) [2] [%] | Scavenging Activity for HO• (%) [3] | ABTS•+ (%) [4] [%] | hydroxyl radical scavenging (%) [5] [%]
1 | – | – | – | CC(Cc1ccc(O)c(O)c1)C(C)Cc1ccc(O)c(O)c1 (stereo not drawn) [NDGA, nordihydroguaiaretic acid, reference compound] | 88% | 96% | – | – | – | –
2 | 85 | 134 to 136 | – | [O-][N+](=CCn1cc(-c2ccccc2)nn1)Cc1ccccc1 [Nitrone 10a, N-Benzyl-2-(4-phenyl-1H-1,2,3-triazol-1-yl)ethan-1-imine Oxide] | 57% | 78% | 81 | no | 8 | –
3 | 62.5 | 129 to 131 | – | [O-][N+](=CCn1cc(-c2ccc(F)cc2)nn1)Cc1ccccc1 [Nitrone 10b, N-Benzyl-2-[4-(4-fluorophenyl)-1H-1,2,3-triazol-1-yl]ethan-1-imine Oxide] | 81/81% | 81/81% | 75 | no | 46 | –
4 | 10 | 112 to 113 | – | [O-][N+](=CCn1cc(-c2ccc(F)cc2F)nn1)Cc1ccccc1 [Nitrone 10c, N-Benzyl-2-[4-(2,4-difluorophenyl)-1H-1,2,3-triazol-1-yl]ethan-1-imine Oxide] | 79/79% | 79/79% | – | no | 23 | –
5 | – | 131 to 133 | 45 | Cc1cc(-c2cn(CC=[N+]([O-])Cc3ccccc3)nn2)ccc1F [Nitrone 10d, N-Benzyl-2-[4-(4-fluoro-3-methylphenyl)-1H-1,2,3-triazol-1-yl]ethan-1-imine Oxide] | 64.4% | 79.5% | 87 | no | 23 | –
6 | – | – | – | Cc1c(C)c2c(c(C)c1O)CCC(C)(C(=O)O)O2 (stereo not drawn) [Trolox, reference compound] | – | – | 93 | 73% | 91 | 88
